Measured values as given in patent US6956034B2, “Oxazin(ethyl)one compounds used as fungicides” (BASF Aktiengesellschaft, priority 2001, dated 2005).

Tests used:
[1] = tested on: mildew of cucumbers (Sphaerotheca fuliginea); assay: Protective activity against mildew of cucumbers; assay type: in vivo; conditions: cucumber seedlings; for percentage of infection of leaves at the prescribed concentration of active compound: sprayed 20 h before inoculation, 7 days, untreated 90
Description: The active compounds were used as aqueous preparations of active compounds which contained the active compound in a concentration of 250 ppm, 63 ppm, 16 ppm and 4 ppm, respectively. The aqueous preparation of active compound was prepared by diluting a stock solution of 10% by weight of active compound, 63% by weight of cyclohexanone and 27% by weight of emulsifier (20 parts by weight of Nekanil® LN (Lutensol® AP6, wetting agent having emulsifying and dispersing action based on ethoxylated alkylphenols) and 10 parts by weight of Wettol® EM (nonionic emulsifier based on ethoxylated castor oil)) with water in the amount required for the desired concentration.
Leaves of cucumber seedlings of the cultivar “Chinesische Schlange” which had been grown in pots were, at the cotyledon stage, sprayed to runoff point with an aqueous preparation of active compound. 20 hours after the spray coating had dried on, the plants were inoculated with an aqueous spore suspension of mildew of cucumbers (Sphaerotheca fuliginea). The plants were then cultivated in a greenhouse at 20-24° C. and 60-80% relative atmospheric humidity for 7 days. The extent of the mildew development was then determined visually in % infection of the cotyledon area.

[2] = tested on: mildew of wheat (Erysiphe [syn. Blumeria] graminis forma specialis tritici); assay: Protective activity against mildew of wheat; assay type: in vivo; conditions: wheat seedlings, sprayed 24 h before inoculation, 7 days, untreated 85
Description: The active compounds were used as aqueous preparations of active compounds which contained the active compound in a concentration of 250 ppm, 63 ppm, 16 ppm and 4 ppm, respectively. The aqueous preparation of active compound was prepared by diluting a stock solution of 10% by weight of active compound, 63% by weight of cyclohexanone and 27% by weight of emulsifier (20 parts by weight of Nekanil® LN (Lutensol® AP6, wetting agent having emulsifying and dispersing action based on ethoxylated alkylphenols) and 10 parts by weight of Wettol® EM (nonionic emulsifier based on ethoxylated castor oil)) with water in the amount required for the desired concentration. The first fully developed leaves of the wheat seedlings of the variety “Kanzler” which had been grown in pots were sprayed to runoff point with an aqueous preparation of active compound prepared from a stock solution containing 10% of active compound, […]. 24 hours after the spray coating had dried on, the plants were inoculated with an aqueous spore suspension of mildew of wheat (Erysiphe [syn. Blumeria] graminis forma specialis. tritici). The plants were then cultivated in a greenhouse at 20-24° C. and 60-90% relative atmospheric humidity. After 7 days the extent of the mildew development was determined visually in % infection of the leaves.

| SMILES | percentage of infection of leaves at the prescribed concentration of active compound ([1]; 16 ppm) [%] | percentage of infection of leaves at the prescribed concentration of active compound ([1]; 63 ppm) [%] | percentage of infection of leaves at the prescribed concentration of active compound ([1]; 250 ppm) [%] | percentage of infection of leaves at the prescribed concentration of active compound ([2]; 16 ppm) [%] | percentage of infection of leaves at the prescribed concentration of active compound ([2]; 63 ppm) [%] | percentage of infection of leaves at the prescribed concentration of active compound ([2]; 250 ppm) [%] | infection of the cotyledon area ([1]; 4 ppm, untreated plants 90% infected) |
| --- | --- | --- | --- | --- | --- | --- | --- |
| CCCn1c(=NOCC)oc2ccc(I)cc2c1=O [I - A1.8] | 0 | 0 | 0 | 0 | 0 | 0 | – |
| CCON=c1oc2ccc(I)cc2c(=O)n1CC1CC1 [I - A1.72] | 0 | 0 | 0 | 0 | 0 | 0 | – |
| CCCCn1c(=NOCC)oc2ccc(I)cc2c1=O [I - A1.24] | 0 | 0 | 0 | 0 | 0 | 0 | – |
| CCCCn1c(=NOCCC)oc2ccc(I)cc2c1=O [I - A1.28] | 0 | 0 | 0 | 0 | 0 | 0 | – |
| CCCON=c1oc2ccc(I)cc2c(=O)n1CC1CC1 [I - A1.76] | 0 | 0 | 0 | 0 | 0 | 0 | – |
| CCCON=c1oc2ccc(I)cc2c(=O)n1CCC [I - A1.12] | 0 | 0 | 0 | 0 | 0 | 0 | – |
| CCCn1c(=NOC)oc2ccc(C)cc2c1=O [I - A1.132] | 10 | 10 | 0 | – | – | – | – |
| CCCn1c(=NOC)oc2ccc(I)cc2c1=O [I - A1.4] | 0 | 0 | 0 | 0 | 0 | 0 | – |
| CCCn1c(=NOC)oc2ccc(OC)cc2c1=O [I - A1.133] | 10 | 5 | 0 | 20 | 0 | 0 | – |
| CCCn1c(=NOC)oc2ccc(Cl)cc2c1=O [Compound I - A1.2, O-Methyl (6-chloro-3-propyl-4H-1,3-benz[e]oxazin-4(3H)-one)-2-oxime] | – | – | – | – | – | – | no infection |
| CCCn1c(=NOC(C)C)oc2ccc(I)cc2c1=O [I - A1.139] | 0 | 0 | 0 | 0 | 0 | 0 | – |
| CC(C)ON=c1oc2ccc(I)cc2c(=O)n1CC1CC1 [I - A1.134] | 0 | 0 | 0 | 0 | 0 | 0 | – |
| CON=c1oc2ccc(I)cc2c(=O)n1CC1CC1 [I - A1.68] | 0 | 0 | 0 | 0 | 0 | 0 | – |
| CCCCn1c(=NOCC2CC2)oc2ccc(I)cc2c1=O [I - A1.136] | 0 | 0 | 0 | 0 | 0 | 0 | – |
| CCCCn1c(=NOC)oc2ccc(I)cc2c1=O [I - A1.20] | 0 | 0 | 0 | 0 | 0 | 0 | – |
| O=c1c2cc(I)ccc2oc(=NOCC2CC2)n1CC1CC1 [I - A1.135] | 3 | 0 | 0 | 5 | 0 | 0 | – |
| CCCn1c(=NOCC2CC2)oc2ccc(I)cc2c1=O [I - A1.137] | 0 | 0 | 0 | 0 | 0 | 0 | – |
| CCCn1c(=NOC)oc2ccc(Cl)cc2c1=O [I - A1.2] | 0 | 0 | 0 | 0 | 0 | 0 | – |
| CCCCn1c(=NOC(C)C)oc2ccc(I)cc2c1=O [I - A1.138] | 0 | 0 | 0 | 0 | 0 | 0 | – |
